Patent publication US9446061B2, “Composition containing antibiotics and lysophosphatidylcholine for boosting immunity or treatment of bacterial infections” (priority 2011, dated 2016)

Experiments:
[1] = test system: CPA-CLP sepsis mouse model; test: Effects of LPC, LPC isomers, Xigris and DW286aa on mortalities/survivabilities in CPA-CLP sepsis mouse model (SEP009); single i.v. 6 hrs after CLP; assay type: in vivo
Description: (§1) CPA is well known as an immunosuppressive agent. […] Then, the abdomen was closed following the general procedure.
(§2) Then, body weight and mortality changes were observed.
In the Sham and CLP control groups, 10 ml/kg of only sterile physiological saline was single intravenously dosed.

[2] = test system: CPA-CLP sepsis mouse model; test: Combination effects of LPC and antibiotics (colistin, tobramycin, fusidin) in CPA-CLP sepsis mouse model (SEP013); single i.v. 6 hrs after CLP; assay type: in vivo, ICR mice; details: mpk: LPC 5, DW286aa 5, Colistin 5, Tobra 4, Fusidin 80, LPC + Colistin 5 + 5, LPC + Tobra 5 + 4, LPC + Fusidin 5 + 80
From the text: as §1, §2

[3] = LPC, LPC18:0, LPC18:1, LPA 5 mpk, Xigris 0.4 mpk, DW286aa 10 mpk, 1st CPA treat
[4] = LPC, LPC18:0, LPC18:1, LPA 5 mpk, Xigris 0.4 mpk, DW286aa 10 mpk, 2nd CPA treat
[5] = LPC, LPC18:0, LPC18:1, LPA 5 mpk, Xigris 0.4 mpk, DW286aa 10 mpk, At CLP (day 0)
[6] = LPC, LPC18:0, LPC18:1, LPA 5 mpk, Xigris 0.4 mpk, DW286aa 10 mpk, Day 1
[7] = LPC, LPC18:0, LPC18:1, LPA 5 mpk, Xigris 0.4 mpk, DW286aa 10 mpk, Day 2
[8] = LPC, LPC18:0, LPC18:1, LPA 5 mpk, Xigris 0.4 mpk, DW286aa 10 mpk, Day 3
[9] = LPC, LPC18:0, LPC18:1, LPA 5 mpk, Xigris 0.4 mpk, DW286aa 10 mpk, Day 4
[10] = LPC, LPC18:0, LPC18:1, LPA 5 mpk, Xigris 0.4 mpk, DW286aa 10 mpk, Day 5
[11] = LPC, LPC18:0, LPC18:1, LPA 5 mpk, Xigris 0.4 mpk, DW286aa 10 mpk, Day 6
[12] = LPC, LPC18:0, LPC18:1, LPA 5 mpk, Xigris 0.4 mpk, DW286aa 10 mpk, Day 7
[13] = LPC, LPC18:0, LPC18:1, LPA 5 mpk, Xigris 0.4 mpk, DW286aa 10 mpk, Day 8
[14] = LPC, LPC18:0, LPC18:1, LPA 5 mpk, Xigris 0.4 mpk, DW286aa 10 mpk, Day 9
[15] = LPC, LPC18:0, LPC18:1, LPA 5 mpk, Xigris 0.4 mpk, DW286aa 10 mpk, Day 10
[16] = LPC, LPC18:0, LPC18:1, LPA 5 mpk, Xigris 0.4 mpk, DW286aa 10 mpk, Total
[17] = Xigris 2 mpk, DW286aa 20 mpk, 1st CPA treat
[18] = Xigris 2 mpk, DW286aa 20 mpk, 2nd CPA treat
[19] = Xigris 2 mpk, DW286aa 20 mpk, At CLP (day 0)
[20] = Xigris 2 mpk, DW286aa 20 mpk, Day 1
[21] = Xigris 2 mpk, DW286aa 20 mpk, Day 2
[22] = Xigris 2 mpk, DW286aa 20 mpk, Day 3
[23] = Xigris 2 mpk, DW286aa 20 mpk, Day 4
[24] = Xigris 2 mpk, DW286aa 20 mpk, Day 5
[25] = Xigris 2 mpk, DW286aa 20 mpk, Day 6
[26] = Xigris 2 mpk, DW286aa 20 mpk, Day 7
[27] = Xigris 2 mpk, DW286aa 20 mpk, Day 8
[28] = Xigris 2 mpk, DW286aa 20 mpk, Day 9
[29] = Xigris 2 mpk, DW286aa 20 mpk, Day 10
[30] = Xigris 2 mpk, DW286aa 20 mpk, Total

“1-oleoyl-2-hydroxy-sn-glycero-3-phosphocholine [LPC18:1]” was tested, and the Mortalities [1, 3] was 0, the survivabilities [1, 3] was 100% and the Mortalities [1, 4] was 0. The survivabilities [1, 4] was 100%, the Mortalities [1, 5] was 0 and the survivabilities [1, 5] was 100%. For the same compound, the Mortalities [1, 6] was 0, the survivabilities [1, 6] was 100% and the Mortalities [1, 7] was 10. For the same compound, the survivabilities [1, 7] was 0%, the Mortalities [1, 8] was 0 and the survivabilities [1, 8] was 0%. The Mortalities [1, 9] was 0, the survivabilities [1, 9] was 0% and the Mortalities [1, 10] was 0. It also gave a survivabilities [1, 10] of 0%, a Mortalities [1, 11] of 0 and a survivabilities [1, 11] of 0%. It also gave a Mortalities [1, 12] of 0, a survivabilities [1, 12] of 0% and a Mortalities [1, 13] of 0. The survivabilities [1, 13] was 0%, the Mortalities [1, 14] was 0 and the survivabilities [1, 14] was 0%. For the same compound, the Mortalities [1, 15] was 0, the survivabilities [1, 15] was 0% and the Mortalities [1, 16] was 10. The survivabilities [1, 16] was 0%.

For `CC(=O)O[C@H]1C[C@@]2(C)[C@@H](C[C@@H](O)[C@H]3[C@@]4(C)CC[C@@H](O)[C@@H](C)[C@@H]4CC[C@@]32C)/C1=C(\CCC=C(C)C)C(=O)O` [Fusidin, fusidic acid], the Mortalities ([2]; 1st CPA treat) was 0, the Survivalities ([2]; 1st CPA treat) was 100% and the Mortalities ([2]; 2nd CPA treat) was 0. The Survivalities ([2]; 2nd CPA treat) was 100%, the Mortalities ([2]; At CLP (day 0)) was 0 and the Survivalities ([2]; At CLP (day 0)) was 100%. It also gave a Mortalities ([2]; Day 1) of 2, a Survivalities ([2]; Day 1) of 80% and a Mortalities ([2]; Day 2) of 5. For the same compound, the Survivalities ([2]; Day 2) was 30%, the Mortalities ([2]; Day 3) was 1 and the Survivalities ([2]; Day 3) was 20%. It also gave a Mortalities ([2]; Total) of 8 and a Survivalities ([2]; Total) of 20%.

`CCCCCCCCCCCCCCCCCC(=O)OC[C@@H](O)COP(=O)([O-])OCC[N+](C)(C)C` [LPC18:0] showed a Mortalities [1, 3] of 0, a survivabilities [1, 3] of 100% and a Mortalities [1, 4] of 0. For the same compound, the survivabilities [1, 4] was 100%, the Mortalities [1, 5] was 0 and the survivabilities [1, 5] was 100%. It also gave a Mortalities [1, 6] of 0, a survivabilities [1, 6] of 100% and a Mortalities [1, 7] of 6. For the same compound, the survivabilities [1, 7] was 40%, the Mortalities [1, 8] was 0 and the survivabilities [1, 8] was 40%. For the same compound, the Mortalities [1, 9] was 1, the survivabilities [1, 9] was 30% and the Mortalities [1, 10] was 1. For the same compound, the survivabilities [1, 10] was 20%, the Mortalities [1, 11] was 0 and the survivabilities [1, 11] was 20%. For the same compound, the Mortalities [1, 12] was 1, the survivabilities [1, 12] was 10% and the Mortalities [1, 13] was 1. The survivabilities [1, 13] was 0%, the Mortalities [1, 14] was 0 and the survivabilities [1, 14] was 0%. For the same compound, the Mortalities [1, 15] was 0, the survivabilities [1, 15] was 0% and the Mortalities [1, 16] was 10. For the same compound, the survivabilities [1, 16] was 0%.

In the case of `NC[C@H]1O[C@H](O[C@H]2[C@H](O)[C@@H](O[C@H]3O[C@H](CO)[C@@H](O)[C@H](N)[C@H]3O)[C@H](N)C[C@@H]2N)[C@H](N)C[C@@H]1O` [Tobra, tobramycin], the Mortalities ([2]; 1st CPA treat) is reported as 0, the Survivalities ([2]; 1st CPA treat) is reported as 100% and the Mortalities ([2]; 2nd CPA treat) is reported as 0. It also gave a Survivalities ([2]; 2nd CPA treat) of 100%, a Mortalities ([2]; At CLP (day 0)) of 0 and a Survivalities ([2]; At CLP (day 0)) of 100%. For the same compound, the Mortalities ([2]; Day 1) was 2, the Survivalities ([2]; Day 1) was 80% and the Mortalities ([2]; Day 2) was 5. For the same compound, the Survivalities ([2]; Day 2) was 30%, the Mortalities ([2]; Day 3) was 1 and the Survivalities ([2]; Day 3) was 20%. It also gave a Mortalities ([2]; Total) of 8 and a Survivalities ([2]; Total) of 20%.

colistin was tested, and the Mortalities ([2]; 1st CPA treat) was 0, the Survivalities ([2]; 1st CPA treat) was 100% and the Mortalities ([2]; 2nd CPA treat) was 0. For the same compound, the Survivalities ([2]; 2nd CPA treat) was 100%, the Mortalities ([2]; At CLP (day 0)) was 0 and the Survivalities ([2]; At CLP (day 0)) was 100%. For the same compound, the Mortalities ([2]; Day 1) was 1, the Survivalities ([2]; Day 1) was 90% and the Mortalities ([2]; Day 2) was 5. It also gave a Survivalities ([2]; Day 2) of 40%, a Mortalities ([2]; Day 3) of 2 and a Survivalities ([2]; Day 3) of 20%. For the same compound, the Mortalities ([2]; Total) was 9 and the Survivalities ([2]; Total) was 20%.

“drotrecogin alfa (activated) [Xigris, reference compound]” showed a Mortalities [1, 3] of 0, a survivabilities [1, 3] of 100% and a Mortalities [1, 4] of 0. The survivabilities [1, 4] was 100%, the Mortalities [1, 5] was 0 and the survivabilities [1, 5] was 100%. It also gave a Mortalities [1, 6] of 3, a survivabilities [1, 6] of 70% and a Mortalities [1, 7] of 4. The survivabilities [1, 7] was 30%, the Mortalities [1, 8] was 2 and the survivabilities [1, 8] was 10%. For the same compound, the Mortalities [1, 9] was 0, the survivabilities [1, 9] was 10% and the Mortalities [1, 10] was 0. The survivabilities [1, 10] was 10%, the Mortalities [1, 11] was 0 and the survivabilities [1, 11] was 10%. It also gave a Mortalities [1, 12] of 0, a survivabilities [1, 12] of 10% and a Mortalities [1, 13] of 1. The survivabilities [1, 13] was 0%, the Mortalities [1, 14] was 0 and the survivabilities [1, 14] was 0%. The Mortalities [1, 15] was 0, the survivabilities [1, 15] was 0% and the Mortalities [1, 16] was 10. The survivabilities [1, 16] was 0%, the Mortalities [1, 17] was 0 and the survivabilities [1, 17] was 100%. The Mortalities [1, 18] was 0, the survivabilities [1, 18] was 100% and the Mortalities [1, 19] was 0. For the same compound, the survivabilities [1, 19] was 100%, the Mortalities [1, 20] was 0 and the survivabilities [1, 20] was 100%. For the same compound, the Mortalities [1, 21] was 5, the survivabilities [1, 21] was 50% and the Mortalities [1, 22] was 1. For the same compound, the survivabilities [1, 22] was 40%, the Mortalities [1, 23] was 3 and the survivabilities [1, 23] was 10%. It also gave a Mortalities [1, 24] of 0, a survivabilities [1, 24] of 10% and a Mortalities [1, 25] of 0. For the same compound, the survivabilities [1, 25] was 10%, the Mortalities [1, 26] was 0 and the survivabilities [1, 26] was 10%. For the same compound, the Mortalities [1, 27] was 1, the survivabilities [1, 27] was 0% and the Mortalities [1, 28] was 0. For the same compound, the survivabilities [1, 28] was 0%, the Mortalities [1, 29] was 0 and the survivabilities [1, 29] was 0%. It also gave a Mortalities [1, 30] of 10 and a survivabilities [1, 30] of 0%.
